Data as given in patent US20170001990A1 (Genentech, Inc., priority 2014, published 2017).
Where “and” joins values, the source holds several entries; their conditions need not be identical. Identical values can stand only once.

Target: Human recombinant carboxy-terminal his-tagged LDHA (amino acids 2-332) (Homo sapiens, UniProt P00338)
Assay: LDHA enzyme inhibition assay (NADH fluorescence)
Settings: LDHA IC50 (μM), 1 nM LDHA, NADH and pyruvate, stereochemistry of tested sample given

Row | SMILES | IC50
1 | O=C1CC(c2ccsc2)(c2cccc(OCCCC(F)(F)F)n2)NC(=O)C1Sc1ccccc1Cl (single isomer, unassigned) [Example 148, 3-(2-chlorophenyl)sulfanyl-6-(3-thienyl)-6-[6-(4,4,4-trifluorobutoxy)-2-pyridyl]piperidine-2,4-dione] | 0.014 µM
2 | O=C1CC(c2ccsc2)(c2cccc(Oc3ccc(F)c(C(F)F)c3)n2)NC(=O)C1Sc1ccccc1Cl (stereo not drawn) [Example 152, 3-(2-chlorophenyl)sulfanyl-6-[6-[3-(difluoromethyl)-4-fluoro-phenoxy]-2-pyridyl]-6-(3-thienyl) piperidine-2,4-dione] | 0.006 µM
3 | CN1C(=O)C(Sc2ccccc2Cl)C(=O)CC1(c1ccsc1)c1cccc(Nc2ccc(F)cc2)n1 (stereo not drawn) [Example 11, 3-(2-chlorophenyl)sulfanyl-6-[6-(4-fluoroanilino)-2-pyridyl]-1-methyl-6-(3-thienyl)piperidine-2,4-dione] | 0.002 µM
4 | CN(c1ccc(Cl)cc1)c1cccc(C2(c3ccsc3)CC(=O)C(Sc3ccccc3Cl)C(=O)N2)n1 (stereo not drawn) [Example 279, 6-(6-((4-chlorophenyl) (methyl)amino)pyridin-2-yl)-3-((2-chlorophenyl)thio)-6-(thiophen-3-yl) piperidine-2,4-dione] | 0.272 µM
5 | CC1CN(c2ccc(C3(c4ccsc4)CC(=O)C(Sc4ccccc4Cl)C(=O)N3)cc2)CCO1 (stereo not drawn) [Example 7, 3-(2-chlorophenyl)sulfanyl-6-[4-(2-methylmorpholin-4-yl)phenyl]-6-(3-thienyl)piperidine-2,4-dione] | 0.009 µM
6 | CC[C@@H](Nc1cccc(C2(c3ccsc3)CC(=O)C(Sc3ccccc3Cl)C(=O)N2)n1)c1ccc(F)c(Cl)c1 (stereo partly drawn) [Example 297, 6-(6-(((R)-1-(3-chloro-4-fluorophenyl)propyl)amino)pyridin-2-yl)-3-((2-chlorophenyl)thio)-6-(thiophen-3-yl)piperidine-2,4-dione] | 0.149 µM
7 | O=C1CC(c2ccsc2)(c2cccc(Oc3cccc4ccncc34)n2)NC(=O)C1Sc1ccccc1Cl (stereo not drawn) [Example 89, 3-(2-chlorophenyl)sulfanyl-6-[6-(8-iso-quinolyloxy)-2-pyridyl]-6-(3-thienyl)piperidine-2,4-dione] | 0.018 µM
8 | O=C1CC(c2ccc(OCCO)cc2)(c2ccsc2)NC(=O)C1Sc1ccccc1Cl (stereo not drawn) [Example 29, 3-(2-chlorophenyl)sulfanyl-6-[4-(2-hydroxyethoxy)phenyl]-6-(3-thienyl)piperidine-2,4-dione] | 0.009 µM
9 | C[C@H](Nc1cccc(C2(c3ccsc3)CC(=O)C(Sc3ccccc3Cl)C(=O)N2)n1)c1ccc(F)cc1 (stereo in doubt) [Example 303, 3-((2-chlorophenyl)thio)-6-(6-((1-(4-fluorophenyl)ethyl)amino)pyridin-2-yl)-6-(thiophen-3-yl) piperidine-2,4-dione] | 0.434 µM
10 | CC(C)Oc1nc(C2(c3ccsc3)CC(=O)C(Sc3ccccc3Cl)C(=O)N2)ccc1N1CCOCC1 (stereo not drawn) [Example 73, 3-((2-chlorophenyl)thio)-6-(6-isopropoxy-5-morpholinopyridin-2-yl)-6-(thiophen-3-yl) piperidine-2,4-dione] | 0.111 µM
11 | O=C1CC(c2ccsc2)(c2cccc(Oc3ccc4ncccc4c3)n2)NC(=O)C1Sc1ccccc1Cl (single isomer, unassigned) [Example 120, 3-(2-chlorophenyl)sulfanyl-6-[6-(6-quinolyloxy)-2-pyridyl]-6-(3-thienyl) piperidine-2,4-dione] | 0.016 µM
12 | O=C1CC(c2ccsc2)(c2cccc(NCc3ccc(F)cc3)n2)NC(=O)C1Sc1ccccc1Cl (single isomer, unassigned) [Example 292, 3-((2-chlorophenyl)thio)-6-(6-((4-fluorobenzyl)amino)pyridin-2-yl)-6-(thiophen-3-yl)piperidine-2,4-dione] | 0.037 µM
13 | O=C1CC(c2ccsc2)(c2ccccc2O)NC(=O)C1Sc1ccccc1Cl (stereo not drawn) [Example 36, 3-(2-chlorophenyl)sulfanyl-6-(2-hydroxyphenyl)-6-(3-thienyl)piperidine-2,4-dione] | 0.021 µM and 0.008 µM and 0.025 µM
14 | O=C1CC(c2ccsc2)(c2cccc(Oc3cccc(F)c3)n2)NC(=O)C1Sc1ccccc1Cl (stereo not drawn) [Example 80, 3-(2-chlorophenyl)sulfanyl-6-[6-(3-fluorophenoxy)-2-pyridyl]-6-(3-thienyl) piperidine-2,4-dione] | 0.056 µM
15 | O=C1CC(c2ccsc2)(c2cccc(Oc3cccc(C(F)(F)F)c3)n2)NC(=O)C1Sc1ccccc1Cl (stereo not drawn) [Example 153, 3-(2-chlorophenyl)sulfanyl-6-(3-thienyl)-6-[6-[3-(trifluoromethyl)phenoxy]-2-pyridyl]piperidine-2,4-dione] | 0.012 µM
16 | CC(C)(O)CCOc1cccc(C2(c3ccsc3)CC(=O)C(Sc3ccccc3Cl)C(=O)N2)n1 (single isomer, unassigned) [Example 170, 3-(2-chlorophenyl)sulfanyl-6-[6-(3-hydroxy-3-methyl-butoxy)-2-pyridyl]-6-(3-thienyl)piperidine-2,4-dione] | 0.145 µM
17 | O=C1CC(c2ccsc2)(c2cccc(Oc3ccc(F)c(F)c3)n2)NC(=O)C1Sc1ccccc1Cl (single isomer, unassigned) [Example 57, 3-(2-chlorophenyl)sulfanyl-6-[6-(3,4-difluoro-phenoxy)-2-pyridyl]-6-(3-thienyl)piperidine-2,4-dione] | 0.086 µM
18 | O=C1CC(c2ccc(C3=CCCCC3)cc2)(c2ccsc2)NC(=O)C1Sc1ccccc1Cl (stereo not drawn) [Example 8, 3-(2-chlorophenyl)sulfanyl-6-[4-(cyclohexen-1-yl)phenyl]-6-(3-thienyl)piperidine-2,4-dione] | 0.004 µM
19 | O=C1CC(c2ccsc2)(c2cccc(Oc3ccc(C(F)(F)F)cc3)n2)NC(=O)C1Sc1ccccc1Cl (stereo not drawn) [Example 315, 3-(2-chlorophenyl)sulfanyl-6-(3-thienyl)-6-[6-[4-(trifluoromethyl)phenoxy]-2-pyridyl]piperidine-2,4-dione] | 0.014 µM
20 | O=C1CC(c2ccsc2)(c2cccc(Oc3cccc4cnccc34)n2)NC(=O)C1Sc1ccccc1Cl (stereo not drawn) [Example 90, 3-((2-chlorophenyl)thio)-6-(6-(isoquinolin-5-yloxy)pyridin-2-yl)-6-(thiophen-3-yl)piperidine-2,4-dione] | 0.013 µM
21 | O=C1CC(c2ccsc2)(c2cccc(NCc3ccc(F)cc3)n2)NC(=O)C1Sc1ccccc1Cl (single isomer, unassigned) [Example 285, 3-((2-chlorophenyl)thio)-6-(6-((4-fluorobenzyl)amino)pyridin-2-yl)-6-(thiophen-3-yl)piperidine-2,4-dione] | 0.01 µM
22 | Cc1cc(Nc2cccc(C3(c4ccsc4)CC(=O)C(Sc4ccccc4Cl)C(=O)N3)n2)nn1C (stereo not drawn) [Example 272, 3-((2-chlorophenyl)thio)-6-(6-((1,5-dimethyl-1H-pyrazol-3-yl)amino)pyridin-2-yl)-6-(thiophen-3-yl) piperidine-2,4-dione] | 0.459 µM

The next lines start with the values.

Row | IC50 | SMILES
23 | 0.29 µM | O=C1C[C@@](c2ccsc2)(c2cccc(OCCC3CC3)n2)NC(=O)C1Sc1ccccc1Cl (stereo partly drawn) [Example 95, (6R)-3-((2-chlorophenyl)thio)-6-(6-(2-cyclo-propylethoxy)pyridin-2-yl)-6-(thiophen-3-yl) piperidine-2,4-dione]
24 | 0.005 µM | CC1CC1COc1cccc(C2(c3ccsc3)CC(=O)C(Sc3ccccc3Cl)C(=O)N2)n1 (stereo not drawn) [Example 183, 3-(2-chlorophenyl)sulfanyl-6-[6-[(2-methylcyclo-propyl)methoxy]-2-pyridyl]-6-(3-thienyl)piperidine-2,4-dione]
25 | 0.19 µM | O=C1CC(c2ccsc2)(c2cccc(OCCC3CCC3)n2)NC(=O)C1Sc1ccccc1Cl (single isomer, unassigned) [Example 168, 3-(2-chlorophenyl)sulfanyl-6-[6-(2-cyclobutylethoxy)-2-pyridyl]-6-(3-thienyl) piperidine-2,4-dione]
26 | 0.129 µM | O=C1CC(c2ccsc2)(c2cccc(OC3CCC(F)(F)CC3)n2)NC(=O)C1Sc1ccccc1Cl (stereo not drawn) [Example 306, 3-((2-chlorophenyl)thio)-6-(6-((4,4-difluoro-cyclohexyl)oxy)pyridin-2-yl)-6-(thiophen-3-yl)piperidine-2,4-dione]
27 | 0.006 µM | O=C1CC(c2ccsc2)(c2cccc(OC3CCCCC3)n2)NC(=O)C1Sc1ccccc1Cl (single isomer, unassigned) [Example 181, 3-(2-chlorophenyl)sulfanyl-6-[6-(cyclohexoxy)-2-pyridyl]-6-(3-thienyl) piperidine-2,4-dione]
28 | 0.229 µM | O=C1CC(c2ccsc2)(c2cccc(OCCC3CC3)n2)NC(=O)C1Sc1ccccc1Cl (stereo not drawn) [Example 81, 3-((2-chlorophenyl)thio)-6-(6-(2-cyclopropyl-ethoxy)pyridin-2-yl)-6-(thiophen-3-yl)piperidine-2,4-dione]
29 | 0.003 µM | CC(CC1CC1)Oc1cccc(C2(c3ccsc3)CC(=O)C(Sc3ccccc3Cl)C(=O)N2)n1 (single isomer, unassigned) [Example 241, 3-(2-chlorophenyl)sulfanyl-6-[6-(2-cyclopropyl-1-methyl-ethoxy)-2-pyridyl]-6-(3-thienyl)piperidine-2,4-dione]
30 | 0.012 µM | C[C@@H](CC1CC1)Oc1cccc(C2(c3ccsc3)CC(=O)C(Sc3ccccc3Cl)C(=O)N2)n1 (stereo in doubt) [Example 322, 3-((2-chlorophenyl)thio)-6-(6-((1-cyclopropyl-propan-2-yl)oxy)pyridin-2-yl)-6-(thiophen-3-yl) piperidine-2,4-dione]
31 | 0.005 µM | CCC1(COc2cccc([C@@]3(c4ccsc4)CC(=O)C(Sc4ccccc4Cl)C(=O)N3)n2)COC1 (stereo partly drawn) [Example 248]
32 | 0.319 µM | O=C1CC(c2ccsc2)(c2cccc(OCC3CC3)n2)NC(=O)C1Sc1ccccc1Cl (single isomer, unassigned) [Example 93, 3-(2-chlorophenyl)sulfanyl-6-[6-(cyclopropyl-methoxy)-2-pyridyl]-6-(3-thienyl)piperidine-2,4-dione]
33 | 0.118 µM | O=C1CC(c2ccsc2)(c2cccc(OC3CCC(O)C3)n2)NC(=O)C1Sc1ccccc1Cl (single isomer, unassigned) [Example 104, 3-((2-chlorophenyl)thio)-6-(6-((3-hydroxycyclo-pentyl)oxy)pyridin-2-yl)-6-(thiophen-3-yl) piperidine-2,4-dione]
